The results in this text go back to publication PMC12273560, “A versatile fluorescence polarization-based deubiquitination assay using an isopeptide bond substrate mimetic (IsoMim)” (The Journal of Biological Chemistry, 2025).

In one experiment the target is T1, USP2 (Homo sapiens, UniProt O75604).
T1 construct: expressed in E. coli BL21(DE3)-RIL, nickel column purification
T1 sequence (O75604 250-605): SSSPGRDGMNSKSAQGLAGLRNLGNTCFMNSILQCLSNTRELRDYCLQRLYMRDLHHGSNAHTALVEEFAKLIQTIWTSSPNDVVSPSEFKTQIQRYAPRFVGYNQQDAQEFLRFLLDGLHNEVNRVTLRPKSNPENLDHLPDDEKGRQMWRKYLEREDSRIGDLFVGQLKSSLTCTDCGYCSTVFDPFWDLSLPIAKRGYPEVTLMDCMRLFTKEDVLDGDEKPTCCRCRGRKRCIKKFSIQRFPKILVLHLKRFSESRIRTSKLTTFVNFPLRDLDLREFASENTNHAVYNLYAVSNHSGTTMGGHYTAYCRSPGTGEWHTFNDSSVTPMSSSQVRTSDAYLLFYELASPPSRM
As to the kind of experiment: fluorescence polarization deubiquitination assay (IsoMim). It is filed as biochemical. A general note: In fluorescence polarisation assays a small probe gives low polarisation when free and higher when bound to something large.

A further experiment addresses T2, UCHL3 (Homo sapiens, UniProt P15374).
T2 construct: expressed in E. coli BL21(DE3)-RIL, nickel column purification
T2 sequence (P15374 1-230): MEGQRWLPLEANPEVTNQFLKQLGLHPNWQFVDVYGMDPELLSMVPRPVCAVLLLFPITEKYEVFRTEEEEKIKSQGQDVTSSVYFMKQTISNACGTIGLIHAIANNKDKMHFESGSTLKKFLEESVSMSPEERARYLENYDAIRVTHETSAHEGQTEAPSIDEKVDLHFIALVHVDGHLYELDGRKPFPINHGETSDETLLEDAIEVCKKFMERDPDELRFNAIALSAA
The description is as above. It is filed as biochemical.

SMILES strings stand for the structures.

On to `N#CSc1cc(SC#N)c(N)nc1N` [PR-619], for which the IC50 against USP2 was 1070 nM; at UCHL3 it was 4680 nM.

By IC50 is commonly meant the concentration needed to halve the response being measured.
